Laboratory results taken from article PMC9602792, “Preclinical evaluation of the epithelial sodium channel inhibitor AZD5634 and implications on human translation” (American Journal of Physiology - Lung Cellular and …, 2022).

Target: T1, rat ENaC (Rattus norvegicus, UniProt P37089+P37090+P37091)
T1 construct: from tissue; host or cells: kidney distal tubule of anesthetized female Wistar rats, in vivo
T1 sequence (P37089 1-698): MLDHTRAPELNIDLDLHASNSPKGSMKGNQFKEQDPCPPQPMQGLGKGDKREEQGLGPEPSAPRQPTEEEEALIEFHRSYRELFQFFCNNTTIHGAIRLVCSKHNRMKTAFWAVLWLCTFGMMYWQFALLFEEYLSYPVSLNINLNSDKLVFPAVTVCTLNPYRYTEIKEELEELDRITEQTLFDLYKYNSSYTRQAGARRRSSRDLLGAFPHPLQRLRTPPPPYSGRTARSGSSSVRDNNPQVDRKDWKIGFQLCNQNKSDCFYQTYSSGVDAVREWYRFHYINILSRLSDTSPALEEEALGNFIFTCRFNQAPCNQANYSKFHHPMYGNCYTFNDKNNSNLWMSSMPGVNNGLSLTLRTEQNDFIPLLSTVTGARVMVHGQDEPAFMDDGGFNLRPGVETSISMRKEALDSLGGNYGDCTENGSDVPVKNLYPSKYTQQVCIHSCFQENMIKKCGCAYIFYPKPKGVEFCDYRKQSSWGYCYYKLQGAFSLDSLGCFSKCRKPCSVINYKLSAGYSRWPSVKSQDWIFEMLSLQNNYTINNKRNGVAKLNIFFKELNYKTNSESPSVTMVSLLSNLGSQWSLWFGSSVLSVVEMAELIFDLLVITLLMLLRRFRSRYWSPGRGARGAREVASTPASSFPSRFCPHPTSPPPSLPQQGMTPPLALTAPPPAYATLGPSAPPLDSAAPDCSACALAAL
T1 sequence (P37090 1-638): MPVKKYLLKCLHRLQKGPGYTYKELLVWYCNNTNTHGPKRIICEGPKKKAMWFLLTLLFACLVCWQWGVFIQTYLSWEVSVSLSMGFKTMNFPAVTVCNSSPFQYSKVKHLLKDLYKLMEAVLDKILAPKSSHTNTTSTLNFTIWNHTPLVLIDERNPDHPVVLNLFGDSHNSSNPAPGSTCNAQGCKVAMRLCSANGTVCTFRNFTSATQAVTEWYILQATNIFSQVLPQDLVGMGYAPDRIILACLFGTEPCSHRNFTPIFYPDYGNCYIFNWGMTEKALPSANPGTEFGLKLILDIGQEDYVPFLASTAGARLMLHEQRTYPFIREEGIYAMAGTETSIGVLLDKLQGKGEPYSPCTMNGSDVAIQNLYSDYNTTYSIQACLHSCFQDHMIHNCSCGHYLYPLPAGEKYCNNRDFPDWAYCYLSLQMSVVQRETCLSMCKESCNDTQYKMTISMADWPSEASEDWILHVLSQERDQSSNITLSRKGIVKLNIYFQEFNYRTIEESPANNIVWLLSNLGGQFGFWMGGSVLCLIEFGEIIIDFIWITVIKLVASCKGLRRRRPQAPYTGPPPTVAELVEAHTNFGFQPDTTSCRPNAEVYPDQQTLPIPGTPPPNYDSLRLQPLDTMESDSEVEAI
T1 sequence (P37091 1-650): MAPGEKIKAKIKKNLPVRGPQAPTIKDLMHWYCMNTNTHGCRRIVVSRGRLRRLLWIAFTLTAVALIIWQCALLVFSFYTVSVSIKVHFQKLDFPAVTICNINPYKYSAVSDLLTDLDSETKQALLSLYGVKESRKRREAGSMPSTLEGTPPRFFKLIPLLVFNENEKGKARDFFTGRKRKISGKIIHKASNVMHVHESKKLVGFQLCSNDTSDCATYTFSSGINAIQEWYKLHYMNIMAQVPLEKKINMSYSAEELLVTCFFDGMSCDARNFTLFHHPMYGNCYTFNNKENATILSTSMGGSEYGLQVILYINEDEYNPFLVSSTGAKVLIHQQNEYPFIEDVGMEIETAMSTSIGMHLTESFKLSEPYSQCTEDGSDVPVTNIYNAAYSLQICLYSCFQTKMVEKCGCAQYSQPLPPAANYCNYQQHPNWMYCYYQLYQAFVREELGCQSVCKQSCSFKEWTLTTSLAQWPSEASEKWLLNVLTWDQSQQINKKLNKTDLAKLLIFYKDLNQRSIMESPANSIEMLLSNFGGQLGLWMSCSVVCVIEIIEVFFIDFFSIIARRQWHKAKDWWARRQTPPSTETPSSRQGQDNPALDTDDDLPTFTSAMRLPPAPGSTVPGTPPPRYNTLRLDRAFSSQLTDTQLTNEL
Test: Rat potency from renal electrolyte excretion during i.v. infusion
Format: in vivo
Conditions: read-out: potency for rat ENaC (EC50, inhibiting 50% of the potassium excretion), normal rats, free concentrations, estimated
Description: The potency of AZD5634 was also assessed in vivo in rats. Female Wistar rats were anesthetized by means of spontaneously breathing isoflurane (induction concentration of 5% followed by 2%). A catheter was positioned in the carotid artery for blood sampling and mean arterial blood pressure and heart rate were measured. […] The urinary bladder was catheterized for urine collection. The rats were left to stabilize for at least 30 min after surgery during constant basal infusions before any test compound or vehicle infusion was initiated. Urine was collected over 20-min periods; two at baseline (i.e., preexposure), followed by three 30 min exposures of increasing doses of test compound or vehicle, where urine was collected over the last 20 min for each dose. Additional urine was collected during the washout period (0–20, 20–40, and 40–60 min after cessation of the infusion protocol). Blood samples were collected 5 min before the end of each urine collection period for electrolyte evaluation (iSTAT analyzer, Abbott Laboratories Inc) and plasma concentration of drug (LC-MSMS). Urine production, electrolytes (ABL700, Radiometer Medical ApS, Brønshøj, Denmark, for urine), as well as concentration of test compound (LC-MSMS) were evaluated.
Rat electrolyte data were analyzed by means of repeated-measures ANCOVA (SAS v.9).

Substance: AZD5634
- EC50: 8.6 nM
